Patent US9388147B2 (Receptos, Inc., priority 2009, dated 2016)
Where two headings read alike, the source gives them in different places.

Columns and labels:
peripheral T-cell counts = assay: Lymphopenia in rats, 3-5 day multiple dose regimen; format: in vivo, rat; details: female rats, oral, 24 h after final dose of a 3-5 day multiple dose regimen
Protocol: In rats: Female rats (Simonsen Laboratories, Gilroy Calif.) were housed in an ALAAC accredited facility and the research was approved by the facilities Institutional Animal Care and Use Committee (IACUC). The animals were acclimated to the laboratory for at least 5 days prior to initiation of experiments. Rats (n=3/compound/time-point) were dosed by oral gavage with 1 mg/kg compound formulated in a vehicle consisting of 5% DMS0/5% Tween 20 and 90% 0.1N HCL. Control rats were dosed PO with the vehicle. Whole blood was collected from isoflurane anesthetized rats via the retro-orbital sinus and terminal samples were collected by cardiac puncture into EDTA. Whole blood was incubated with mouse anti-rat CD32 (BD #550271), PE-mouse anti-rat CD45R/B220 (BD #554881), PECy5-mouse anti-rat CD4 (BD #554839), and APC-mouse anti-rat CD8a (eBioscience #17-0084) for 30 minutes on ice. Red blood cells were lysed using BD Pharm Lyse Lysing buffer (#555899) and white blood cells were analyzed with a BD FACSArray. Lymphopenia was expressed as the % of white blood cells that were CD4 or CD8 positive T cells. The overall lymphopenia response over 24 h was estimated by calculating the area under the effect curve (AUEC) using the linear trapezoidal rule.
(§1) The compounds listed in Table 6 were formulated as suspensions in a vehicle consisting of 0.5% carboxymethyl cellulose (Acros Organics) in purified water (pH adjusted to ˜2.2 with hydrochloric acid). The same formulation was used in the rat lymphopenia and toxicology studies described below. The concentration of each compound in suspension was verified to be within ±10% of the target concentration by HPLC-UV.
Prior to the conduct of toxicology studies, the effect of three to five daily doses of each compound on peripheral T-cell counts of female rats was determined (see lymphopenia measurements in rats above). In these lymphopenia studies, blood samples were collected onto EDTA at intervals after the final study dose. The collection times were not identical for each study, however, all studies included a sample collected 24 hours after the final dose. The lymphopenia data was used as a biomarker to select equally pharmacologically active doses for the subsequent toxicology study. […] The high dose in the toxicology study represented a ≧20-fold increment over the low dose.
(§2) The dose producing a 10% increase in lung to body weight ratio was interpolated from a plot of dose versus lung to body weight. The lymphopenia response was measured 24 hours following the final dose of a 3-5 day multiple dose regimen.

S1P4 = target: T1, S1P4 (Homo sapiens, UniProt O95977); assay: Specificity over other S1P receptors: S1P4-bla TANGO U2OS assay; format: cell-based; details: read-out: S1P4 agonist value (EC50)
T1 construct: Tango fusion (own knowledge: protease cleavage site plus GAL4-VP16 transcription factor at the receptor's C-terminus); host or cells: U2OS (Tango -bla)
T1 sequence (O95977 1-384): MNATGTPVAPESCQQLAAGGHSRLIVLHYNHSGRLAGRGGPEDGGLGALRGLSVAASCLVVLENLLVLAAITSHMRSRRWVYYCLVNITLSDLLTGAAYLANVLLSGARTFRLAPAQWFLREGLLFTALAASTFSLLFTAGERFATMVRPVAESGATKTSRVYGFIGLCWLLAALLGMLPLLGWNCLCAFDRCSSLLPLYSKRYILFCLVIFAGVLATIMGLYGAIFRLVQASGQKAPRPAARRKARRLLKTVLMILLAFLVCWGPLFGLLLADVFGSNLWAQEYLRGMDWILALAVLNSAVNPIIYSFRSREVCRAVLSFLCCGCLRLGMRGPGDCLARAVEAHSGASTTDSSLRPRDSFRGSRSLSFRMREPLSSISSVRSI
Protocol: (§3) Cells were seeded into 384-well black wall/clear bottom plates at 10^4 cells/well/19.5 μl assay media (DMEM-phenol free, 0.5% charcoal/dextran stripped serum, 2 mM glutamine, 0.1 mM NEAA, 1 mM Na-Pyruvate, 25 mM Hepes) and incubated for 18 hrs at 37° C. in 5% CO2. Dose response curves (10-point) were generated in 10 mM Hepes, 0.1% Pluronic F127, in the presence of Forskolin. Cells were treated with 0.5 μl compound in the presence of 2 μM Forskolin for 4 hrs at 37° C. The FRET-based β-lactamase fluorescent substrate (LiveBLAzer™-FRET B/G Loading Kit CC4-AM; Invitrogen) was prepared according to manufacturer's directions, and incubated with cells for 2 hrs at room temperature. Plates were read at Ex:410/Em:458 and Ex:410/Em:522, and the response ratio determined. Data was analyzed by non-linear regression to determine the EC50 for inhibition of Forskolin induced cAMP.
(§4) To assess compound specificity on other S1P receptors the following cell lines were used: S1P2 CRE-bla CHOK1, S1P3-Gα15 NFAT-bla HEK293T (Invitrogen), S1P4-bla TANGO U2OS (Invitrogen), S1P5-bla TANGO U2OS (Invitrogen). The same assay set up for S1P1 was used but without Forskolin. S1P4 and S1P5 assays were performed in FreeStyle Expression medium (Invitrogen). S1P5 cells were incubated for 48 hrs in prior to treatment with compound.

S1P2 = target: T2, S1P2 (Homo sapiens, UniProt O95136); assay: Specificity over other S1P receptors: S1P2 CRE-bla CHOK1 reporter assay; format: cell-based; details: S1P2 CRE-bla CHOK1, without Forskolin; read-out: S1P2 agonist value (EC50)
T2 construct: expressed in transfected cells; host or cells: CRE-bla CHOK1
Protocol: as §3, §4

S1P5 = target: T3, S1P5 (Homo sapiens, UniProt Q9H228); assay: Specificity over other S1P receptors: S1P5-bla TANGO U2OS assay; format: cell-based; details: read-out: S1P5 agonist value (EC50)
T3 construct: Tango fusion (own knowledge: protease cleavage site plus GAL4-VP16 transcription factor at the receptor's C-terminus); host or cells: U2OS (Tango -bla)
Protocol: as §3, §4

[1] = Evaluation of therapeutic index in rats: 5 or 14 day toxicology study, lung to body weight ratio; format: in vivo, Sprague-Dawley rat
Protocol: All studies were conducted in non-fasted male and female Sprague-Dawely rats (Simonsen Laboratories). Rats were housed in an AAALAC accredited facility and the research was approved by the facilities Institutional Animal Care and Use Committee (IACUC). The animals were acclimated to the laboratory for at least 5 days prior to initiation of experiments.
as §1
In the toxicology studies, three male and three female rats per group were assigned to dosing groups using body weight based randomization. A control group in each study received vehicle. All animals were dosed orally by gavage on 5 or 14-consecutive days at a dose volume of 5 mL/kg/day. The animals were observed daily for any manifestations of adverse effect. Twenty-four hours after the final study dose, the rats were anesthetized with isoflurane and a terminal blood sample was taken by intra-cardiac puncture for hematology and clinical chemistry evaluation (IDEXX Laboratories, Sacramento, Calif.). The lungs with trachea were collected, weighed, and then prepared for histology by perfusion with 10% neutral buffered formalin via the trachea. The internally fixed lungs were then preserved in 10% neutral buffered formalin and submitted for histological examination (IDEXX).
The dose of each compound resulting in a 10% increase in the lung to terminal body weight ratio was estimated for each compound by linear interpolation. The therapeutic index was estimated as the ratio of the dose producing 10% lung weight increase to the dose producing 50% T-Cell depletion.
as §2

S1P3 = target: T4, S1P3 (Homo sapiens, UniProt Q99500); assay: Specificity over other S1P receptors: S1P3-Gα15 NFAT-bla HEK293T reporter assay; format: cell-based; details: without Forskolin, read-out: S1P3 agonist value (EC50)
T4 construct: host or cells: NFAT-bla HEK293T
Protocol: as §3, §4

[2] = tested on: CD4 or CD8 positive T cells; assay: Lymphopenia in mice; format: in vivo; details: female C57BL6 mice, 1 mg/kg oral gavage, area under the effect curve over 24 h
Protocol: In mice: Female C57BL6 mice (Simonsen Laboratories, Gilroy Calif.) were housed in an ALAAC accredited facility and the research was approved by the facilities Institutional Animal Care and Use Committee (IACUC). The animals were acclimated to the laboratory for at least 5 days prior to initiation of experiments. Mice (n=3/compound/time-point) were dosed by oral gavage with 1 mg/kg compound formulated in a vehicle consisting of 5% DMSO/5% Tween 20 and 90% 0.1N HCl. Control mice were dosed PO with the vehicle. Terminal whole blood samples were collected from isoflurane anesthetized mice by cardiac puncture into EDTA. Whole blood was incubated with rat anti-mouse CD16/CD32 (Mouse BD Fc Block, #553141), PE-Rat anti-mouse CD45R/B220 (BD #553089), APC-Cy7-Rat anti-mouse CD8a (BD #557654), and Alexa Fluor647-Rat anti-mouse CD4 (BD #557681) for 30 min on ice. Red blood cells were lysed using BD Pharm Lyse Lysing buffer (#555899) and white blood cells were analyzed by FACS. Lymphopenia was expressed as the % of white blood cells that were CD4 or CD8 positive T cells. The overall lymphopenia response over 24 h was estimated by calculating the area under the effect curve (AUEC) using the linear trapezoidal rule.

S1P1/EDG1 [3] = target: T5, S1P1/EDG1 (Homo sapiens, UniProt P21453); assay: S1P1 CRE-bla CHOK1 reporter assay, inhibition of Forskolin induced cAMP; format: cell-based
Procedure, shortened: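 Read-out is a FRET β-lactamase substrate (2 h, room temperature) after 4 h, 37 °C compound treatment under 2 μM Forskolin in stable S1P1-transfected CRE-bla CHO-K1 cells. Ten-point curves; non-linear regression gives EC50 for inhibition of Forskolin-stimulated cAMP.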

S1P1 R120A/E121A = target: T6, S1P1 R120A/E121A (Homo sapiens, UniProt P21453, E121A/R120A); assay: Phosphorylated-ERK1/2 In Cell Western, S1P1 R120A/E121A mutant in CHOK1 cells; format: cell-based
T6 construct: expressed in transfected cells; host or cells: CHOK1
Protocol: (§5) A. Quick-change mutagenesis with PfuTurbo DNA polymerase (Stratagene) was conducted using S1P1/pcDNA3.1 (Missouri S&T cDNA Resource Centre) as the template. Primers were as follows: […]
(§6) PCR conditions were 15 cycles with the following parameters: 95° C. 30 sec, 58° C. 30 sec, 68° C. for 60 sec. All constructs were sequence verified.
(§7) CHOK1 cells were transfected using Fugene (Roche). Stably expressing mixed pools were selected with 2 mg/ml G418. Expression of functional S1P1/EDG1 receptor was confirmed by cell surface FACS with a S1P1 antibody (R&D Systems, clone 218713). Stable pools were seeded at 40,000 cells/well in a clear bottom 96-well tray, and incubated at 37° C. in 5% CO2 for 18 hrs. Cells were serum-starved in FreeStyle 293 medium (Invitrogen) for 4-6 h, then incubated for 5 min with a dose response of compound, in duplicate. Cells were fixed with 4% paraformaldehyde for 20 min, permeabilized with 0.1% Triton X-100 in PBS (4×5 min washes) and blocked for 1 h in Odyssey Blocking Buffer (LI-COR). All incubations were at room temperature. Cells were incubated for 18 h at 4° C. in Rabbit anti-Phospho-ERK1/2 (Cell Signaling #4377) and Mouse anti-ERK1/2 (Cell Signaling #9107) both diluted 1:800 in Odyssey Blocking Buffer. Plates were washed with 0.1% Tween-20 in PBS and then incubated with Odyssey Blocking Buffer containing IRDye 680-labeled goat anti-rabbit antibody (#926-32221; diluted 1/500) and IRDye 800CW-labeled goat anti-mouse antibody (#926-32210; diluted 1/1000). Plates were washed with 0.1% Tween-20 in PBS, all liquid was removed from the wells and the plates were scanned using a LICOR Odyssey scanner. The phospho-ERK1/2 signal was normalized to the ERK1/2 signal. Data was analyzed by non-linear regression using GraphPad Prism to determine the EC50 of binding.

S1P1 W269L = target: T7, S1P1 W269L (Homo sapiens, UniProt P21453, W269L); assay: Phosphorylated-ERK1/2 In Cell Western, S1P1 W269L mutant; format: cell-based
T7 construct: expressed in transfected cells; host or cells: CHOK1
Protocol: as §7, with “The phospho-ERK1/2 signal was normalized to the ERK1/2 signal.” left out, “binding. […]” for “binding.”

S1P1 N101A = target: T8, S1P1 N101A (Homo sapiens, UniProt P21453, N101A); assay: Phosphorylated-ERK1/2 In Cell Western, S1P1 N101A mutant in CHOK1 cells; format: cell-based
T8 construct: expressed in transfected cells; host or cells: CHOK1
Protocol: as §5, §6, §7

S1P1/EDG1 [4] = target: T5, S1P1/EDG1; assay: Phosphorylated-ERK1/2 In Cell Western, wild type S1P1 in CHOK1 cells; format: cell-based
Protocol: as §7, with “The phospho-ERK1/2 signal was normalized to the ERK1/2 signal.” left out

[5] = agonist activity range, S1P1 CRE-bla CHOK1, 2 μM Forskolin, read-out: S1P1 ACTIVITY

T5 sequence (P21453 whole entry): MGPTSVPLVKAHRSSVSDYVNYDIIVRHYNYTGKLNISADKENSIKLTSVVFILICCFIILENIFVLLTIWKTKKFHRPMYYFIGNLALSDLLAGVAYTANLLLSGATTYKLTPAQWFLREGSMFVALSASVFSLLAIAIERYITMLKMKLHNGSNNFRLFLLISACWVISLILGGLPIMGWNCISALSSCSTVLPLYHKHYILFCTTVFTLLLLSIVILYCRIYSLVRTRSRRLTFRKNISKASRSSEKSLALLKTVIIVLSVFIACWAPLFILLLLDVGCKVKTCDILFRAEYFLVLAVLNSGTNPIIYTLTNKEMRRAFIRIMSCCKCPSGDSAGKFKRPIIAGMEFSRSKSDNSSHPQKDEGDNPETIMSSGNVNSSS
T4 sequence (Q99500 whole entry): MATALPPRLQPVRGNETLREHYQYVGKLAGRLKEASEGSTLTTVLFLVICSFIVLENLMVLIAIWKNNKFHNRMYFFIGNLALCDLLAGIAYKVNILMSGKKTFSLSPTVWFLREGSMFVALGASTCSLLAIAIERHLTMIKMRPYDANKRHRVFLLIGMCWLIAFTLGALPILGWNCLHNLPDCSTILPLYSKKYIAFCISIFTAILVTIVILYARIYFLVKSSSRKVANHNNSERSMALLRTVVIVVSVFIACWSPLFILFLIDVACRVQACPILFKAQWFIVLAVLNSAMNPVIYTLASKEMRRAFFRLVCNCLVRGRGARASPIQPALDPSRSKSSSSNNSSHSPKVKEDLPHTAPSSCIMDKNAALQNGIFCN
T8 sequence (P21453 whole entry N101A): as the sequence (P21453 whole entry) above, with N101A counted along it
T3 sequence (Q9H228 whole entry, the tested form may be a part): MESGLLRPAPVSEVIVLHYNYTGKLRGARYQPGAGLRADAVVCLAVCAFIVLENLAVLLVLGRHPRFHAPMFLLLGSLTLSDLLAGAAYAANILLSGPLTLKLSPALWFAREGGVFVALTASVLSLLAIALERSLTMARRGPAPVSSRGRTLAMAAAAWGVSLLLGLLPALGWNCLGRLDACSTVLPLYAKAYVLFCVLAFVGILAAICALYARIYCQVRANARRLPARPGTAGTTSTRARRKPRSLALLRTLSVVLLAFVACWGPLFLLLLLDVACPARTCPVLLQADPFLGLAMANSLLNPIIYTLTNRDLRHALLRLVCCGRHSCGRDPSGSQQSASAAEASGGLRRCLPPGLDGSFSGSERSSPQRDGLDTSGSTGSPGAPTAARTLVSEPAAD
T2 sequence (O95136 whole entry, species assumed): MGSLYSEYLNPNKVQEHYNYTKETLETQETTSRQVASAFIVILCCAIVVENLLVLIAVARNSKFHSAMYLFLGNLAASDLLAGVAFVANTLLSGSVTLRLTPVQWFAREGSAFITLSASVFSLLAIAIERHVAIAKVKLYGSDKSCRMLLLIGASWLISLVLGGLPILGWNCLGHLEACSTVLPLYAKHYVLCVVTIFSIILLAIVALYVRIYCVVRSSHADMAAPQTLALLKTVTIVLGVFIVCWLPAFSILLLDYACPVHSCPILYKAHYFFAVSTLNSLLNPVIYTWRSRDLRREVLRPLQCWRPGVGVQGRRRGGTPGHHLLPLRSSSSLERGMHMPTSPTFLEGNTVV
T6 sequence (P21453 whole entry R120A/E121A): as the sequence (P21453 whole entry) above, with R120A, E121A counted along it
T7 sequence (P21453 whole entry W269L): as the sequence (P21453 whole entry) above, with W269L counted along it

Structure (SMILES)	Dose Producing 50% lymphopenia (peripheral T-cell counts)	EC50 (S1P4)	EC50 (S1P2)	EC50 (S1P5)	Dose Resulting in 10% increase in lung weight ([1]; rats, oral, 5 or 14 consecutive days, interpolated from dose versus lung to body weight)	TI 14 days ([1]; therapeutic index: dose producing 10% lung weight increase / dose producing 50% T-cell depletion, 14 day toxicology study in rats)	EC50 (S1P3)	Mouse Lymphopenia (AUEC) [2]	EC50 (S1P1/EDG1 [3]; S1P1 CRE-bla CHOK1, with Forskolin, read-out: S1P1 agonist value (EC50))	EC50 (S1P1/EDG1 [3]; [5])	Effect of mutation on binding of compound (in words) (S1P1 R120A/E121A; S1P1 R120A/E121A)	Fold change in EC50 compared to wild type S1P1 (S1P1 R120A/E121A; S1P1 variant R120A/E121A, phospho-ERK1/2)	Effect of mutation on binding of compound (in words) (S1P1 W269L)	Effect of mutation on binding of compound (in words) (S1P1 N101A; S1P1 N101A)	Fold change in EC50 compared to wild type S1P1 (S1P1 N101A; S1P1 variant N101A, phospho-ERK1/2)	Phosphorylation of ERK1/2 by S1P1 agonist (in words) (S1P1/EDG1 [4])
CC(C)Oc1ccc(-c2nc(-c3cccc4c3CC[C@@H]4NCCO)no2)cc1C#N [Compound 86, (S)-5-(3-(1-(2-hydroxyethylamino)-2,3-dihydro-1H-inden-4-yl)-1,2,4-oxadiazol-5-yl)-2-isopropoxy benzonitrile]	0.15 mg/kg	4.19 µM	9.56 µM	0.0552 µM	2.7 mg/kg	18	9.94 µM	1342	–	–	–	–	–	–	–	–
CCOc1ccc(-c2nc(-c3cccc4c3CCC4O)no2)cc1OCC (racemic) [Compound 254, (+/−)-4-(5-(3,4,diethoxyphenyl)-1,2,4-oxadiazol-3-yl)-2,3-dihydro-1H-inden-1-ol, reference compound]	–	5.5 µM	5.5 µM	0.0568 µM	–	–	5.27 µM	84	0.16 nM	0.05 to 0.5 nM	–	–	–	–	–	–
CC(C)Oc1ccc(-c2nc(-c3cccc4c3CCC4NCCC(=O)O)no2)cc1C#N (racemic) [Compound 38]	–	–	–	–	–	–	–	–	–	< 0.05 nM	diminishes binding	11	abolishes binding	had no effect on binding	2	induce phosphorylation of ERK1/2
